Source: patent publication US8992982B2, “Formulation of indomethacin” (Iceutica Pty Ltd., priority 2009, dated 2015)

Test system: pain after surgical removal of impacted third molars
Assay: Phase 2 dental pain study: pain relief, 5-point categorical scale (TOTPAR, pain relief score, peak pain relief, time to peak pain relief)
Assay type: in vivo, human
Details: for Pain relief score A Little (1), % / Pain relief score None (0), % / Pain relief score Some (2), % / Pain relief score A Lot (3), % / Pain relief score Complete (4), %: 400 mg; for TOTPAR-8, LS mean difference vs placebo: treatment - placebo
Experimental: This was a phase-2, multicenter, randomized, double-blind, single-dose, parallel-group, active- and placebo-controlled study to evaluate the efficacy and safety of Indomethacin Nanoformulation Capsules (20 mg and 40 mg) in subjects with postoperative dental pain.
On Day 1, eligible subjects underwent extraction of 2 or more third molars, at least 1 of which had to be a fully or partially bone-impacted mandibular molar. If only 2 molars were removed, then they had to be ipsilateral.
Subjects assessed their baseline pain intensity (VAS) before receiving study drug (predose, Time 0) and their pain intensity (VAS) and pain relief (5-point categorical scale) at 15, 30, and 45 minutes and 1, 1.5, 2, 3, 4, 5, 6, 7, and 8 hours after Time 0 and immediately before the first dose of rescue medication. The 2-stopwatch method was used to record the time to perceptible and time to meaningful pain relief, respectively. Acetaminophen (1000 mg) was permitted as the initial rescue medication. Subjects were encouraged to wait at least 60 minutes after receiving study drug before taking rescue medication. […] Other restrictions included the following: no alcohol use from 24 hours before surgery until discharge on Day 1; nothing by mouth (NPO) from midnight before surgery until 1 hour after surgery; clear liquids only from 1 hour after surgery until 1 hour after dosing; and advancement of diet 1 hour after dosing according to standard practice.
The primary efficacy endpoint was the sum of total pain relief (TOTPAR) over 0 to 8 hours (TOTPAR-8) after Time 0. The TOTPAR was calculated using the pain relief score (5-point categorical scale) at each follow-up time point weighted (multiplied) using the amount of time since the prior assessment.
The secondary efficacy endpoints were as follows: • TOTPAR over 0 to 4 hours (TOTPAR-4) after Time 0 • Visual Analogue Scale (VAS) pain intensity difference (VASPID) at each scheduled time point after Time 0 • Time to onset of analgesia (measured as time to perceptible pain relief confirmed by meaningful pain relief) • VAS pain intensity score at each scheduled time point • VAS summed pain intensity difference (VASSPID) over 0 to 4 hours (VASSPID-4) and over 0 to 8 hours (VASSPID-8) after Time 0 • Pain relief score at each scheduled time point after Time 0 • Peak pain relief • Time to peak pain relief • Time to first perceptible pain relief • Time to meaningful pain relief • Proportion of subjects using rescue medication • Time to first use of rescue medication (duration of analgesia) • Patient's global evaluation of study drug Safety:
The null hypothesis was that TOTPAR over 0 to 8 hours after Time 0 (TOTPAR-8) for placebo would be equal to TOTPAR-8 for 40-mg Indomethacin Nanoformulation Capsules. The null hypothesis was analyzed using analysis of covariance (ANCOVA) models, which included treatment effect and significant covariates. The effect of potential covariates, such as sex, baseline pain intensity, and surgical trauma rating, were assessed using appropriate ANCOVA models. The analysis was based on a 2-sided test at the significance level of 0.05.
The least squares (LS) mean and 95% confidence interval (CI) for each treatment regimen, the mean (LS mean) difference between the 2 treatments, and the associated P value and 95% CI for the mean difference were computed from the ANCOVA model. This analysis utilized primarily the ITT population, and sensitivity analysis utilized the PP population.
Other comparisons between the treatment regimens, including 20-mg Indomethacin Nanoformulation Capsules versus placebo and 400-mg celecoxib capsules versus placebo, were considered secondary but also utilized the ITT population. The primary efficacy variable was also summarized by site, but no P values or statistical tests for site were computed.
Each efficacy endpoint was summarized descriptively by treatment group. […]

SMILES: Cc1ccc(-c2cc(C(F)(F)F)nn2-c2ccc(S(N)(=O)=O)cc2)cc1 [Celecoxib]
- Pain relief score A Little (1), % (15 minutes, ITT): (21.6) %
- Pain relief score None (0), % (15 minutes, ITT): (74.5) %
- Pain relief score Some (2), % (15 minutes, ITT): (3.9) %
- Pain relief score A Little (1), % (30 minutes, ITT): (41.2) %
- Pain relief score A Lot (3), % (30 minutes, ITT): (3.9) %
- Pain relief score None (0), % (30 minutes, ITT): (51.0) %
- Pain relief score Some (2), % (30 minutes, ITT): (3.9) %
- Pain relief score A Little (1), % (45 minutes, ITT): (37.3) %
- Pain relief score A Lot (3), % (45 minutes, ITT): (13.7) %
- Pain relief score Complete (4), % (45 minutes, ITT): (2.0) %
- Pain relief score None (0), % (45 minutes, ITT): (27.5) %
- Pain relief score Some (2), % (45 minutes, ITT): (19.6) %
- Pain relief score A Little (1), % (1 hour, ITT): (31.4) %
- Pain relief score A Lot (3), % (1 hour, ITT): 25.5%
- Pain relief score Complete (4), % (1 hour, ITT): (3.9) %
- Pain relief score None (0), % (1 hour, ITT): (15.7) %
- Pain relief score Some (2), % (1 hour, ITT): (23.5) %
- Pain relief score A Little (1), % (2 hours, ITT): (13.7) %
- Pain relief score A Lot (3), % (2 hours, ITT): (49.0) %
- Pain relief score Complete (4), % (2 hours, ITT): (5.9) %
- Pain relief score None (0), % (2 hours, ITT): (17.6) %
- Pain relief score Some (2), % (2 hours, ITT): (13.7) %
- Pain relief score A Little (1), % (3 hours, ITT): (5.9) %
- Pain relief score A Lot (3), % (3 hours, ITT): (51.0) %
- Pain relief score Complete (4), % (3 hours, ITT): (5.9) %
- Pain relief score None (0), % (3 hours, ITT): (21.6) %
- Pain relief score Some (2), % (3 hours, ITT): (15.7) %
- Pain relief score A Little (1), % (4 hours, ITT): (7.8) %
- Pain relief score A Lot (3), % (4 hours, ITT): (49.0) %
- Pain relief score Complete (4), % (4 hours, ITT): (9.8) %
- Pain relief score None (0), % (4 hours, ITT): (27.5) %
- Pain relief score Some (2), % (4 hours, ITT): (5.9) %
- Pain relief score A Little (1), % (5 hours, ITT): (3.9) %
- Pain relief score A Lot (3), % (5 hours, ITT): (43.1) %
- Pain relief score Complete (4), % (5 hours, ITT): (11.8) %
- Pain relief score None (0), % (5 hours, ITT): (31.4) %
- Pain relief score Some (2), % (5 hours, ITT): (9.8) %
- Pain relief score A Little (1), % (6 hours, ITT): (2.0) %
- Pain relief score A Lot (3), % (6 hours, ITT): (37.3) %
- Pain relief score Complete (4), % (6 hours, ITT): (17.6) %
- Pain relief score None (0), % (6 hours, ITT): (37.3) %
- Pain relief score Some (2), % (6 hours, ITT): (5.9) %
- Pain relief score A Lot (3), % (7 hours, ITT): (43.1) %
- Pain relief score Complete (4), % (7 hours, ITT): (13.7) %
- Pain relief score None (0), % (7 hours, ITT): (41.2) %
- Pain relief score Some (2), % (7 hours, ITT): (2.0) %
- Pain relief score A Lot (3), % (8 hours, ITT): (41.2) %
- Pain relief score Complete (4), % (8 hours, ITT): (13.7) %
- Pain relief score None (0), % (8 hours, ITT): (41.2) %
- Pain relief score Some (2), % (8 hours, ITT): (3.9) %
- Time to peak pain relief, Hazard ratio (Cox proportional hazards model, vs placebo, ITT): 1.8
- Peak pain relief: A Little (1) (ITT): (11.8) %
- Peak pain relief: A Lot (3) (ITT): (47.1) %
- Peak pain relief: Complete (4) (ITT): (21.6) %
- Peak pain relief: None (0) (ITT): (7.8) %
- Peak pain relief: Some (2) (ITT): (11.8) %
- Time to peak pain relief: subjects analyzed (ITT): (58.8) %
- Time to peak pain relief: subjects censored (ITT): (41.2) %
- TOTPAR-4, Mean (ITT population): 7.152
- TOTPAR-4, Median (ITT population): 8.750
- Time to peak pain relief, Mean (Kaplan-Meier estimate, ITT): 3.3 h
- Time to peak pain relief, Q25 (Kaplan-Meier estimate, ITT): 1.50 h
- Time to peak pain relief, Q50 (Kaplan-Meier estimate, ITT): 3.00 h
- Time to peak pain relief, Q75 (Kaplan-Meier estimate, ITT): 5.00 h
- TOTPAR-8, LS mean (Model 1 (primary): ANCOVA, baseline pain intensity as only covariate, ITT): 14.822
- TOTPAR-8, LS mean difference vs placebo (Model 1 (primary), ITT): 11.803
- TOTPAR-8, LS mean (Model 2: baseline pain intensity, gender and surgical trauma rating as covariates, ITT): 14.797
- TOTPAR-8, LS mean difference vs placebo (Model 2, ITT): 11.864
- TOTPAR-8, Median (Overall, ITT population): 19.250
- TOTPAR-8, Mean (Overall, ITT population, single oral dose (celecoxib 400 mg)): 14.858
- TOTPAR-8, Mean (Site 50048, ITT population): 15.524
- TOTPAR-8, Median (Site 50048, ITT population): 20.500
- TOTPAR-8, Mean (Site 50053, ITT population): 14.021
- TOTPAR-8, Median (Site 50053, ITT population): 14.625
- TOTPAR-8, Mean (Site 50054, ITT population): 14.639
- TOTPAR-8, Median (Site 50054, ITT population): 20.750
- Pain relief score A Little (1), % ([…], ITT): (17.6) %
- Pain relief score A Lot (3), % ([…], ITT): (31.4) %
- Pain relief score Complete (4), % ([…], ITT): (3.9) %
- Pain relief score None (0), % ([…], ITT): (17.6) %
- Pain relief score Some (2), % ([…], ITT): (29.4) %
- Time point from which pain relief scores were statistically significantly more favorable than placebo (onward after Time 0): ≥ 45 min
